Source: publication PMC11217349, “Development of Nurr1 agonists from amodiaquine by scaffold hopping and fragment growing” (Communications Chemistry, 2024)
Values joined by “and” are separate entries in the source; they are usually repeats but may differ in a detail not shown here. Equal entries are not always repeated.

Experiments:
[1] = target: T1, human Nurr1 (hinge region and ligand binding domain) (Homo sapiens, UniProt P43354); assay: Gal4-Nurr1 hybrid reporter gene assay; type: cell-based; conditions: mean ± SD, n ≥ 3; for EC50: Gal4-Nurr1 hybrid reporter, HEK293T, read-out: EC50(Nurr1); for max. activation: maximum effect vs. 0.1% DMSO control
T1 construct: expressed in transfected cells; host or cells: HEK293T
Experimental: Nurr1 modulation was determined in a Gal4 hybrid reporter gene assay in HEK293T cells (German Collection of Microorganisms and Cell Culture GmbH, DSMZ) using pFR-Luc (Stratagene, La Jolla, CA, USA; reporter), pRL-SV40 (Promega, Madison, WI, USA; internal control) and pFA-CMV-hNurr1-LBD[14], coding for the hinge region and ligand binding domain of the canonical isoform of human Nurr1. […] After 24 h, the medium was changed to Opti-MEM without supplements, and cells were transiently transfected using Lipofectamine LTX reagent (Invitrogen, Carlsbad, CA, USA) according to the manufacturer’s protocol. Five hours after transfection, cells were incubated with the test compounds in Opti-MEM supplemented with penicillin (100 U/mL), streptomycin (100 μg/mL), and 0.1% DMSO for 16 h before luciferase activity was measured using the Dual-Glo Luciferase Assay System (Promega) according to the manufacturer’s protocol on a Tecan Spark luminometer (Tecan Deutschland GmbH, Crailsheim, Germany). Firefly luminescence was divided by Renilla luminescence and multiplied by 1000 resulting in relative light units (RLU) to normalize for transfection efficiency and cell growth. Fold activation was obtained by dividing the mean RLU of the test compound by the mean RLU of the untreated control. All samples were tested in at least three biologically independent experiments in duplicates. For dose-response curve fitting and calculation of EC50 values, the equation “[Agonist] vs. response -- Variable slope (four parameters)” was used in GraphPad Prism (version 7.00, GraphPad Software, La Jolla, CA, USA). Selectivity profiling was performed with identical procedures using pFA-CMV-Nur77-LBD[14], pFA-CMV-NOR-1-LBD[14], pFA-CMV-THRα-LBD[51], pFA-CMV-RARα-LBD[52], pFA-CMV-PPARα-LBD[53], pFA-CMV-PPARγ-LBD[53], pFA-CMV-PPARδ-LBD[53], pFA-CMV-LXRα-LBD[54], pFA-CMV-FXR-LBD[55] and pFA-CMV-hRXRα-LBD[56].

[2] = Parallel artificial membrane permeability assay (PAMPA); type: in vitro ADME; conditions: 500 µM donor, pH 7.4, 18 h
Experimental: Passive lipid membrane diffusion of test compounds was determined using Merck Millipore MultiScreen Filter Plates (0.45 μm pore diameter, hydrophobic PVDF). The filter inserts were coated with 1% L-α-phosphatidylcholine (Fluka Analytical) in n-dodecan. The test compounds were then added to the donor compartment at a final concentration of 500 µM in a phosphate buffer pH 7.4 containing 5% DMSO with a total volume of 150 µL. The acceptor compartment was filled with 300 µL PBS containing 5% DMSO. Additionally, three equilibrium samples were prepared by directly adding the donor solution to the acceptor compartment for the calculation of log Pe values. The filter plates were incubated for 18 h before the test compound concentrations in the acceptor compartments and in the equilibrium, samples were determined by UV absorbance at 320 nm (34), 360 nm (36), 310 nm (41), or 315 nm (42) with external calibration in a 96 well quartz plate on a SpectraMax M2e microplate reader (Molecular Devices). logPe values were calculated according to the formula published by Sugano and colleagues.

Microsomal stability = type: in vitro ADME, rat; conditions: male, Sprague-Dawley, pH 7.4; rat liver microsomes, 10 µM, LCMS
Experimental: To determine microsomal stability, test compounds (10 μM) were incubated in 100 mM potassium phosphate buffer at pH 7.4 (total volume of 100 µL) containing 0.5 mg/mL male rat liver microsomes (Sprague-Dawley, no. M9066, Merck KGaA, Darmstadt) and 1 mM NADPH for 0, 15, 30, or 60 min. At the end of the incubation time, microsomal activity was terminated by the addition of 500 µL MeCN and subsequent centrifugation at 1700 g for 5 min. A reaction mixture containing heat-inactivated microsomes (95 °C, 10 min) was prepared as a control for each compound. 5 µL supernatant of each sample was analyzed and the remaining concentrations of the respective test compounds at each time point were determined by LC-MS/MS on an API-3200-QTrap (Sciex) with an Agilent Technologies 1100 series setup including a binary pump (G1311A), a degasser (G1322A), and a Shimadzu SIL 20 A HT autosampler under the control of Analyst 1.6 (Sciex). A XBridge BEH C18 (3.5 µm, 150 mm×3 mm, Waters, protected with a 0.5 µm frit) stationary phase was used in combination with a gradient method starting with 0.1% formic acid in water (A) and MeCN (B) as mobile phase (A:B = 80:20) for 6 min going to A: B = 50:50 after 8 min. 5 µL of supernatant diluted in mobile phase starting conditions was loaded onto the column, separated at a flow rate of 400 µL/min, and detected and quantified per Area of MRM (multiple reaction monitoring) with the following transitions: m/z 381.797/145.000 (34); m/z 395.125/158.200 (36); m/z 409.822/131.000 (41); m/z 407.838/171.100 (42).

[3] = system: HBEC-5i human brain endothelial cells; assay: In vitro blood-brain-barrier model; type: in vitro ADME; conditions: HBEC-5i trans-well, 10 µM, 60 min
Experimental: Permeation of test compounds through a human brain endothelial cell barrier was evaluated using the Corning Costar 3470 Transwell Plate system (0.4 μm pore diameter with 6.5 mm inserts) and HBEC-5i cells (ATCC, CRL-3245). Filter inserts were coated one day before seeding with 50 μL 0.01% rat-tail collagen type I ([…], Sigma-Aldrich) in PBS. 60,000 HBEC-5i cells in 100 μL HBEC-5i-Medium (DMEM/F12 with 10% FCS and 40 μg/mL ECGS) were seeded after aspiration of the coating-supernatant in each insert with 600 μL HBEC-5i-Medium in each receiver well. After 24 h incubation at 37 °C with 5% CO2, the medium was exchanged to 600 μL T98G cell supernatant in receiver wells and 100 μL fresh HBEC-5i-Medium in inserts. The medium exchange was repeated every second day. On day 7 after seeding, the medium in the receiver wells was replaced by 600 μL Hank's balanced salt solution (HBSS) containing 10 mM HEPES and 0.1% DMSO and 100 μL test compound mixtures (antipyrine and test compound; each at 10 μM) in HBSS containing 10 mM HEPES and 0.1% DMSO were added to inserts. After 60 min incubation, 100 μL samples were taken from the receiver wells and diluted in 400 μL (75%/25% A/B; A=Formic acid 0.1% in water; B = Acetonitrile). Test compound concentrations in the samples were determined by LC-MS/MS on an API-3200-QTrap (Sciex) equipped with an Agilent Technologies 1100 series setup including a binary pump […]), and a Shimadzu […] autosampler under the control of Analyst 1.6 (Sciex). […] B) for 6 min going to (50%:50%) after 8 min. 5 μL of aspirated supernatant diluted in mobile phase starting conditions was loaded onto the column, separated at a flow rate of 400 μL/min, and quantified per Area of MRM (multiple reaction monitoring).

Nurr1 = system: Nurr1; set-up: method as in PMID 33289551; conditions: independent evaluation; cited from earlier work

T1 sequence (P43354 360-595 limits assumed): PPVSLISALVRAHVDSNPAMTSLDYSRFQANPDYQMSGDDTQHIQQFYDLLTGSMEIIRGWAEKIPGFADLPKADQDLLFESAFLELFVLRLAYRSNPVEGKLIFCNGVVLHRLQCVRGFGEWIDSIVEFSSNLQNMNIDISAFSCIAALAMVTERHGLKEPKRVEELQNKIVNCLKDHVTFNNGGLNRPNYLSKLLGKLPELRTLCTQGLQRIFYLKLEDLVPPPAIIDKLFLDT

With COc1ccc(-c2ccc(C(=O)Nc3c(C)nc4c(Cl)cccn34)o2)cc1 [Compound 34] the EC50 [1] was 160 ± 60 nM, the max. activation [1] was 1.7 ± 0.1 fold and the “logPe (PAMPA)” value [2] was -5.478 and -5.491 and -5.489 and -5.4212 and -5.4577. For the same compound, the half-life at 10 µM (Microsomal stability) was 18 ± 2 min.

In the case of Cc1nc2c(Cl)cccn2c1NC(=O)c1ccc(-c2ccc(OC(C)C)cc2)o1 [Compound 41], the EC50 [1] is reported as 120 ± 30 nM, the max. activation [1] is reported as 2.1 ± 0.2 fold and the “logPe (PAMPA)” value [2] is reported as -5.684 and -5.708 and -5.674 and -5.7032 and -5.723 and -5.7183. It also gave a half-life at 10 µM (Microsomal stability) of 42 ± 5 min.

With Cc1nc2c(Cl)cccn2c1NC(=O)c1ccc(-c2ccc(OC3CC3)cc2)o1 [Compound 42, N-(8-Chloro-2-methylimidazo[1,2-a]pyridin-3-yl)-5-(4-cyclopropoxyphenyl)furan-2-carboxamide] the EC50 [1] was 120 ± 60 nM, the max. activation [1] was 1.5 ± 0.2 fold and the “logPe (PAMPA)” value [2] was -5.857 and -5.822 and -5.789 and -5.846 and -5.806. The “logPe (BBB)” value [3] was -5.049 and -5.059 and -4.946 and -5.046 and -4.96 and -4.965 and the half-life at 10 µM (Microsomal stability) was 78 ± 7 min.

For O=C(Nc1ccccc1)c1cn2cc(-c3ccccn3)ccc2n1 [SR24237], the “binding to Nurr1” value (Nurr1) is given as “no evidence for binding”.

In the case of Cc1cc(=O)n(-c2ccccc2)n1C [antipyrine, reference compound], the “logPe (BBB)” value [3] is reported as -4.6402 and -4.7739 and -4.62 and -4.578 and -4.647.
